Assay results taken from patent US11191779B2, “Pharmaceutical composition for preventing or treating cancer, comprising tetraarsenic hexoxide crystalline polymorph” (CHEMAS CO., LTD., priority 2016, dated 2021).

Key:
[1] = test system: human endometrial cancer cell line HEC-1B; experiment: MTT cell proliferation assay, endometrial cancer cell line HEC-1B; format: cell-based; conditions: treatment for 72 hours, read-out: Cancer cell growth inhibition (IC50)
Source text: (§1) As human cancer cell lines, human lung cancer cell lines NCL-H226 and SK-MES-1, human esophageal cancer cell lines KYSE-150 and TE-1, human gastric cancer cell line AGS, human colorectal cancer cell lines HT29 and HCT116, human prostate cancer cell line PC-3, human pancreatic cancer cell lines BxPC-3 and PANC-1, human cervical cancer cell lines SiHa and HeLa, human ovarian cancer cell line SK-OV-3, and human endometrial cancer cell lines Ishikawa, HEC-1A, and HEC-1B were obtained from the Shanghai Cell Bank of Chinese Academy of Sciences. […]
(§2) The effects of Example 1 and Comparative Examples 1 to 3 on cell proliferation were assessed using MTT assay. […] All the crystals were completely dissolved by standing at room temperature for 15 minutes, and the absorbance was measured using a micro-plate reader at a wavelength of 570 nm (A570 nm).
(§3) The absorbance value of the control group treated without the sample was calculated as 100, and the absorbance value of the treatment group treated with the sample, compared with that of the control group, was calibrated, and the percentage of inhibition of cell proliferation was calculated according to the following equation. Percentage (%) of inhibition of cell proliferation=((mean absorbance of control group cells−mean absorbance of treatment group cells)/mean absorbance of control group cells)×100

[2] = test system: human endometrial cancer cell line Ishikawa; experiment: MTT cell proliferation assay, endometrial cancer cell line Ishikawa; format: cell-based; conditions: treatment for 72 hours, read-out: Cancer cell growth inhibition (IC50)
Source text: as §1, §2, §3

[3] = test system: various cancer cells, such as brain cancer, breast cancer, liver cancer, and skin cancer; experiment: Proliferation of other cancer cells (data not shown); format: cell-based
[4] = test system: human colorectal cancer cell line HCT116; experiment: MTT cell proliferation assay, colorectal cancer cell line HCT116; format: cell-based
Source text: as §1, §2, §3

[5] = test system: human lung cancer cell line SK-MES-1; experiment: MTT cell proliferation assay, lung cancer cell line SK-MES-1; format: cell-based
Source text: as §1, §2, §3

[6] = test system: human cervical cancer cell line HeLa; experiment: MTT cell proliferation assay, cervical cancer cell line HeLa; format: cell-based; conditions: treatment for 72 hours, read-out: Cancer cell growth inhibition (IC50)
Source text: as §1, §2, §3

[7] = test system: human pancreatic cancer cell line BxPC-3; experiment: MTT cell proliferation assay, pancreatic cancer cell line BxPC-3; format: cell-based
Source text: as §1, §2, §3

[8] = test system: human colorectal cancer cell line HT29; experiment: MTT cell proliferation assay, colorectal cancer cell line HT29; format: cell-based
Source text: as §1, §2, §3

[9] = test system: human esophageal cancer cell line KYSE-150; experiment: MTT cell proliferation assay, esophageal cancer cell line KYSE-150; format: cell-based
Source text: as §1, §2, §3

[10] = test system: human prostate cancer cell line PC-3; experiment: MTT cell proliferation assay, prostate cancer cell line PC-3; format: cell-based; conditions: PC-3, treatment for 72 hours, read-out: Cancer cell growth inhibition (IC50)
Source text: as §1, §2, §3

[11] = test system: human esophageal cancer cell line TE-1; experiment: MTT cell proliferation assay, esophageal cancer cell line TE-1; format: cell-based
Source text: as §1, §2, §3

[12] = test system: human pancreatic cancer cell line PANC-1; experiment: MTT cell proliferation assay, pancreatic cancer cell line PANC-1; format: cell-based
Source text: as §1, §2, §3

[13] = test system: human endometrial cancer cell line HEC-1A; experiment: MTT cell proliferation assay, endometrial cancer cell line HEC-1A; format: cell-based; conditions: treatment for 72 hours, read-out: Cancer cell growth inhibition (IC50)
Source text: as §1, §2, §3

[14] = test system: human gastric cancer cell line AGS; experiment: MTT cell proliferation assay, gastric cancer cell line AGS; format: cell-based
Source text: As human cancer cell lines, human lung cancer cell lines NCL-H226 and SK-MES-1, human esophageal cancer cell lines KYSE-150 and TE-1, human gastric cancer cell line AGS, human colorectal cancer cell lines HT29 and HCT116, human prostate cancer cell line PC-3, human pancreatic cancer cell lines BxPC-3 and PANC-1, human cervical cancer cell lines SiHa and HeLa, human ovarian cancer cell line SK-OV-3, and human endometrial cancer cell lines Ishikawa, HEC-1A, and HEC-1B were obtained from the Shanghai Cell Bank of Chinese Academy of Sciences. The cells were incubated in media supplemented with 10% FBS, 50 U/ml penicillin, and 50 μg/ml streptomycin and suitable for incubation of respective cells (RPMI-1640 (NCL-H226, TE-1, BxPC-3, Ishikawa), MEM (SK-MES-1, SiHa, HeLa, HEC-1B), Ham's F-12K (AGS), Ham's F-12 (PC-3), McCOY's 5A (HT29, HCT116, SK-OV-3, HEC-1A), RPMI-1640:Ham's F-12=1:1(v:v) (KYSE-150), and DMEM (PANC-1)) in a humidified incubator with 5% CO2 and 95% air. The media were exchanged every three days.
as §2, with “assay. MTT assay is based on the ability of viable cells against MTT to produce insoluble dark blue formazan products.” for “assay.”
as §3

[15] = test system: human cervical cancer cell line SiHa; experiment: MTT cell proliferation assay, cervical cancer cell line SiHa; format: cell-based; conditions: treatment for 72 hours, read-out: Cancer cell growth inhibition (IC50)
Source text: as §1, §2, §3

[16] = test system: human lung cancer cell line NCL-H226; experiment: MTT cell proliferation assay, lung cancer cell line NCL-H226; format: cell-based
Source text: as §1, §2, §3

[17] = test system: human ovarian cancer cell line SK-OV-3; experiment: MTT cell proliferation assay, ovarian cancer cell line SK-OV-3; format: cell-based; conditions: SK-OV-3, treatment for 72 hours, read-out: Cancer cell growth inhibition (IC50)
Source text: as §1, §2, §3

[18] = test system: uterine cancer, bladder cancer, lung cancer, maxillary sinus cancer, kidney cancer; conditions: end-stage cancer patients; cited from earlier work
cancer metastasis = conditions: animal experiments; cited from earlier work

O1[As]2O[As]3O[As]1O[As](O2)O3 [Example 1, tetraarsenic hexoxide]
IC50 [1]: 4.61 µM
IC50 [2]: 2.75 µM
inhibition of proliferation of various cancer cells [3]: confirmed to inhibit the proliferation
IC50 ([4]; Colorectal cancer, HCT116, treatment for 72 hours, read-out: Cancer cell growth inhibition (IC50)): 5.07 µM
percentage of inhibition of cell proliferation according to treatment time ([4]; HCT116, 10 μM, 24, 48, 72 hours (FIG. 6A)): increased with the treatment time
IC50 ([5]; Lung cancer, SK-MES-1, treatment for 72 hours, read-out: Cancer cell growth inhibition (IC50)): 2.47 µM
percentage of inhibition of cell proliferation according to treatment time ([5]; SK-MES-1, 10 μM, 24, 48, 72 hours (FIG. 3)): increased with the treatment time
IC50 [6]: 1.63 µM
percentage of inhibition of cell proliferation according to concentration ([7]; BxPC-3, different concentrations, 72 hours (FIG. 8B)): increased dependent on the concentration of Example 1
IC50 ([7]; Pancreatic cancer, BxPC-3, treatment for 72 hours, read-out: Cancer cell growth inhibition (IC50)): 4.98 µM
IC50 ([8]; Colorectal cancer, HT29, treatment for 72 hours, read-out: Cancer cell growth inhibition (IC50)): 1.27 µM
percentage of inhibition of cell proliferation according to treatment time ([8]; HT29, 10 μM, 24, 48, 72 hours (FIG. 6A)): increased with the treatment time
IC50 ([9]; Esophageal cancer, KYSE-150, treatment for 72 hours, read-out: Cancer cell growth inhibition (IC50)): 9.85 µM
percentage of inhibition of cell proliferation according to treatment time ([9]; KYSE-150, 10 μM, 24, 48, 72 hours (FIG. 4A)): significantly increased in the treatment for 72 hours
IC50 [10]: 4.98 µM
IC50 ([11]; Esophageal cancer, TE-1, treatment for 72 hours, read-out: Cancer cell growth inhibition (IC50)): 2.35 µM
percentage of inhibition of cell proliferation according to treatment time ([11]; TE-1, 10 μM, 24, 48, 72 hours (FIG. 4A)): increased with the treatment time
percentage of inhibition of cell proliferation according to concentration ([12]; PANC-1, different concentrations, 72 hours (FIG. 8B)): increased dependent on the concentration of Example 1
IC50 ([12]; Pancreatic cancer, PANC-1, treatment for 72 hours, read-out: Cancer cell growth inhibition (IC50)): 5.62 µM
IC50 [13]: 2.47 µM
IC50 ([14]; Gastric cancer, treatment for 72 hours, read-out: Cancer cell growth inhibition (IC50)): 0.9 µM
inhibition of cell proliferation according to treatment time and concentration ([14]; different concentrations, 24, 48, 72 hours (FIG. 5A)): increased with the treatment time at each treatment concentration
percentage of inhibition of gastric cancer cell proliferation at 48 hours ([14]; treatment for 48 hours (FIG. 5A)): high in spite of the treatment for only 48 hours
IC50 [15]: 2.8 µM
IC50 ([16]; Lung cancer, NCL-H226, treatment for 72 hours, read-out: Cancer cell growth inhibition (IC50)): 5.12 µM
percentage of inhibition of cell proliferation according to treatment time ([16]; NCL-H226, 10 μM, 24, 48, 72 hours (FIG. 3)): increased with the treatment time
IC50 [17]: 5.02 µM

O1[As]2O[As]3O[As]1O[As](O2)O3 [tetraarsenic hexoxide]
anticancer treatment effects [18]: had excellent anticancer treatment effects
cancer metastasis suppressing effects (cancer metastasis): showed cancer metastasis suppressing effects
